# Patent US8143255B2, “Heteroalkyl linked pyrimidine derivatives” (S*BIO Pte Ltd., priority 2005, dated 2012)
# What was measured:
# JAK2 V617F = molecular target: T1, JAK2 V617F (Homo sapiens, UniProt O60674, V617F); assay: In vitro kinase activity assay (PKLight), JAK2 V617F mutant; format: biochemical; details: recombinant JAK2 V617F mutant, poly(Glu,Ala,Tyr) substrate, 0.2 μM ATP
# T1 construct: purchased Invitrogen PV4347
# Procedure: (§1) All assays were carried out in 384-well white microtiter plates using the PKLight assay system from Cambrex (East rutherford, N.J.). This assay platform is essentially a luminometdc assay for the detection of ATP in the reaction using a luciferase-coupled reaction. For CDK2/Cyclin A assay, the reaction mixture consisted of the following components in 25 μL assay buffer (50 mM Hepes pH 7.5, 10 mM MgCl2, 5 mM MnCl2, 5 mM BGP, 1 mM DTT, 0.1 mM sodium orthovanadate), 1.4 μg/mL of CDK2/Cyclin A complex, 0.5 μM of RbING substrate (Invitrogen, Cat # PV2939) and 0.5 μM of ATP. The compounds were tested at 8 concentrations prepared from 4-fold serial dilution starting at 10 μM. The reaction was incubated at room temperature for 2 hr. 13 μL of PKLight ATP detection reagent was added and the reaction was incubated for 10 min. Luminescence signals were detected on a multi-label plate reader (Victor^2 V 1420, Perkin-Elmer). The other kinase assays were identical except for the following differences in reagents. For FLT3 assays, the reaction contained 2.0 μg/mL FLT3 enzyme, 5 μM of poly(Glu,Tyr) substrate (Sigma, Cat # P0275) and 4 μM of ATP. For JAK2 assays, the reaction contained 0.6 μg/mL of JAK2 enzyme, 2 μM of poly(Glu,Ala,Tyr) substrate (Sigma, Cat # P3899) and 0.2 μM of ATP. […] The analytical software, Prism 4.0 (GraphPad Software Pte Ltd) was used to generate IC50 values from the data.
# [1] = tested on: MV4-11 (acute myeloid leukemia cell line); assay: Cell-based proliferation assay, MV4-11; details: Homo sapiens; MV4-11 cells, 96 h treatment
# Procedure: (§2) Human cancer cell lines HL60 (acute myeloid leukemia cell line), Colo205 (colon adenocarcinoma cell line), HEL92.1.7 (erythroleukemia cell line), MV4-11 (acute myeloid leukemia cell line) and DU145 (metastatic prostate cancer cell line) were obtained from ATCC. They were cultivated in the media according to the ATCC work instructions. Colo205 and DU145 cells were seeded in 96-wells plate 5000 cells per cell and 1000 cells per well respectively. HEL92.1.7 and MV4-11 cells were seeded at 6000 cells per well while HL60 cells were seeded at 8000 cells per well in 96 well plate. The plates were incubated at 37° C., 5% CO2, for 24 h. Cells were treated with compounds at various concentrations for 96 h. Cell growth was then monitored using Celltiter96 Aqueous One Solution Cell Proliferation Assay from Promega (Madison Wis.). Dose response curves were plotted to determine GI50 values for the compounds using XL-fit (ID Business Solution, Emeryville, Calif.).
# FLT3 = molecular target: T2, FLT3 (Homo sapiens, UniProt P36888); assay: In vitro kinase activity assay (PKLight), FLT3; format: biochemical; details: recombinant FLT3, poly(Glu,Tyr) substrate, 4 μM ATP
# T2 construct: purchased Invitrogen PV3182
# T2 sequence (P36888 27-993): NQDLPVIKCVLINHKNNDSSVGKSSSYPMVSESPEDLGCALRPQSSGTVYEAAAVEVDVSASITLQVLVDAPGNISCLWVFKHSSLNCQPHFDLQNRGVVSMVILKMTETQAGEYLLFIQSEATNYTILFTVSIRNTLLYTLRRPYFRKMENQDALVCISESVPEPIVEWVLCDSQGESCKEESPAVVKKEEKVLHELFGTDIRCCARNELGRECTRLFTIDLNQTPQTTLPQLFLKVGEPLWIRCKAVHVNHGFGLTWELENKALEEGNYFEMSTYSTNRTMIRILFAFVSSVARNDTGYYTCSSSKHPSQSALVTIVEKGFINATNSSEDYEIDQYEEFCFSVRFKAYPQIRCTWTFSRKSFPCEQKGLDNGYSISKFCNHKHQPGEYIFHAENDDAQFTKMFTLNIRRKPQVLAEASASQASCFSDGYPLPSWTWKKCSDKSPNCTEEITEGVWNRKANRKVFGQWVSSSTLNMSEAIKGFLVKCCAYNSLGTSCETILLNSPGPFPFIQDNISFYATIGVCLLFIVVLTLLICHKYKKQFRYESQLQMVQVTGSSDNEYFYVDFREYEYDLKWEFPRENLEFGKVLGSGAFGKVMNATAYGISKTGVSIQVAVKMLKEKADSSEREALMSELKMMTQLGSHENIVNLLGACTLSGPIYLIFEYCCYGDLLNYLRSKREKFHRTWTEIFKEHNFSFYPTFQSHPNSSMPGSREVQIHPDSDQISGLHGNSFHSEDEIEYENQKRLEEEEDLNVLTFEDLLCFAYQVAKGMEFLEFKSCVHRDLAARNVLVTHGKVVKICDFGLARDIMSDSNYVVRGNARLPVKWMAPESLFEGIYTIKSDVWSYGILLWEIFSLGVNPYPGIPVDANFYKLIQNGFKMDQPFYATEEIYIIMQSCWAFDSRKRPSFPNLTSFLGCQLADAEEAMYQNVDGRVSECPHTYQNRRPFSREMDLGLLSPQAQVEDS
# Procedure: The recombinant enzymes (CDK2/CyclinA, FLT3, JAK2 and JAK2 V617F) were purchased from Invitrogen (Cat # PV3267, 3182, 4210 and 4347 respectively). All assays were carried out in 384-well white microtiter plates using the PKLight assay system from Cambrex (East rutherford, N.J.). This assay platform is essentially a luminometdc assay for the detection of ATP in the reaction using a luciferase-coupled reaction. For CDK2/Cyclin A assay, the reaction mixture consisted of the following components in 25 μL assay buffer (50 mM Hepes pH 7.5, 10 mM MgCl2, 5 mM MnCl2, 5 mM BGP, 1 mM DTT, 0.1 mM sodium orthovanadate), 1.4 μg/mL of CDK2/Cyclin A complex, 0.5 μM of RbING substrate (Invitrogen, Cat # PV2939) and 0.5 μM of ATP. The compounds were tested at 8 concentrations prepared from 4-fold serial dilution starting at 10 μM. The reaction was incubated at room temperature for 2 hr. 13 μL of PKLight ATP detection reagent was added and the reaction was incubated for 10 min. Luminescence signals were detected on a multi-label plate reader (Victor^2 V 1420, Perkin-Elmer). The other kinase assays were identical except for the following differences in reagents. For FLT3 assays, the reaction contained 2.0 μg/mL FLT3 enzyme, 5 μM of poly(Glu,Tyr) substrate (Sigma, Cat # P0275) and 4 μM of ATP. For JAK2 assays, the reaction contained 0.6 μg/mL of JAK2 enzyme, 2 μM of poly(Glu,Ala,Tyr) substrate (Sigma, Cat # P3899) and 0.2 μM of ATP. For JAK2 V617F mutant assays, the reaction contained 8.0 μg/mL of JAK2 mutant enzyme, 2 μM of poly(Glu,Ala,Tyr) substrate (Sigma, Cat # P3899) and 0.2 μM of ATP. The analytical software, Prism 4.0 (GraphPad Software Pte Ltd) was used to generate IC50 values from the data. […] IC50 values are shown below in Table 3.
# [2] = tested on: DU145 (metastatic prostate cancer cell line); assay: Cell-based proliferation assay, DU145; details: Homo sapiens, DU-145; DU145 cells, 96 h treatment
# Procedure: as §2
# JAK2 = molecular target: T3, JAK2 (Homo sapiens, UniProt O60674); assay: In vitro kinase activity assay (PKLight), JAK2; format: biochemical; details: recombinant JAK2, poly(Glu,Ala,Tyr) substrate, 0.2 μM ATP
# T3 construct: purchased Invitrogen PV4210
# Procedure: as §1
# [3] = tested on: HEL92.1.7 (erythroleukemia cell line); assay: Cell-based proliferation assay, HEL92.1.7; details: Homo sapiens, HEL 92.1.7; HEL92.1.7 cells, 96 h treatment
# Procedure: as §2
# [4] = tested on: Colo205 (colon adenocarcinoma cell line); assay: Cell-based proliferation assay, Colo205; details: Homo sapiens, COLO 205; Colo205 cells, 96 h treatment
# Procedure: as §2
# [5] = tested on: HL60 (acute myeloid leukemia cell line); assay: Cell-based proliferation assay, HL60; details: Homo sapiens, HL-60; HL60 cells, 96 h treatment
# Procedure: as §2
# CDK2/CyclinA = molecular target: T4, CDK2/CyclinA (Homo sapiens, UniProt P24941); assay: In vitro kinase activity assay (PKLight), CDK2/Cyclin A; format: biochemical; details: recombinant CDK2/Cyclin A, RbING substrate, 0.5 μM ATP, 2 hr
# T4 construct: purchased Invitrogen PV3267
# Procedure: as §1
# T3 sequence (O60674 whole entry): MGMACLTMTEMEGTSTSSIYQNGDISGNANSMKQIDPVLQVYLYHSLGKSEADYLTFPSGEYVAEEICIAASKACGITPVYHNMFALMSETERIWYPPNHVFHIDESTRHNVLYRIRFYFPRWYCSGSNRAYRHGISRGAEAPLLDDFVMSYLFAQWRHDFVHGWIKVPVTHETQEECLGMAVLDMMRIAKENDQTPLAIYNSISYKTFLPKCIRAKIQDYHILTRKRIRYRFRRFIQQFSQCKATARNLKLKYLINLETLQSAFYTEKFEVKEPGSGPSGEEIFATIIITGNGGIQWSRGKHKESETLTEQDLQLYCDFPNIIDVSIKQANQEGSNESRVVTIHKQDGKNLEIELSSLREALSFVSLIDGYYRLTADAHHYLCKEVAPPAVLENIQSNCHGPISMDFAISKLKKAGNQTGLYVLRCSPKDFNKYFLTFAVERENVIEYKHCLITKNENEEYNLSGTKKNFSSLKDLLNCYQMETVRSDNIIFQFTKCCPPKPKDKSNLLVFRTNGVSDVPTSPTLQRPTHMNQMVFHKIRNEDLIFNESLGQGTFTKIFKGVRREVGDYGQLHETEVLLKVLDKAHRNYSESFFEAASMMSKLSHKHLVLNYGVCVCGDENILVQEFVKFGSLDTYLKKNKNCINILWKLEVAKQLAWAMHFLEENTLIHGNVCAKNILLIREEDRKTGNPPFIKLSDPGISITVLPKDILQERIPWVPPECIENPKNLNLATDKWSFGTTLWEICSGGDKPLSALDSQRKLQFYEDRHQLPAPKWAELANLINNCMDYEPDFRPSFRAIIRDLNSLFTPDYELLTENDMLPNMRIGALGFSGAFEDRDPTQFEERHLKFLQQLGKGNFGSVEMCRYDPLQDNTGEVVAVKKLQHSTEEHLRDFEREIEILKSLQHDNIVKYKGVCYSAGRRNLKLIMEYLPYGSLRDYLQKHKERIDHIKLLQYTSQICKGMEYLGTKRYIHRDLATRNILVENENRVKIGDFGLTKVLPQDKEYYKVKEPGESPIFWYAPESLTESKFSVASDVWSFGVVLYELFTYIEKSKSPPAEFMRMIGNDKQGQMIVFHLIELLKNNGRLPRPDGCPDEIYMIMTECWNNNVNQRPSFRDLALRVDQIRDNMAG
# T1 sequence (O60674 whole entry V617F): as the sequence (O60674 whole entry) above, with V617F counted along it
Structure (SMILES),IC50 (JAK2 V617F) [nM],GI50 [1] [nM],IC50 (FLT3) [nM],GI50 [2] [nM],IC50 (JAK2) [nM],GI50 [3] [nM],GI50 [4] [nM],GI50 [5] [nM],IC50 (CDK2/CyclinA) [nM]
O=C1NC/C=C/COCc2cccc(c2)Nc2nccc(n2)-c2cccc1c2 [Compound 17],≤ 1000,> 5000,1000 to 5000,> 5000,≤ 1000,> 5000,> 5000,> 5000,> 5000
C1=C/CN(C2CC2)Cc2cc(ccc2OCCN2CCOCC2)Nc2nccc(n2)-c2cccc(c2)OCC/1 [Compound 36],≤ 1000,≤ 1000,≤ 1000,> 5000,≤ 1000,1000 to 5000,1000 to 5000,≤ 1000,≤ 1000
CN1C/C=C/CCOc2cc(F)cc(c2)-c2ccnc(n2)Nc2ccc(OCCN3CCCC3)c(c2)C1 [Compound 52],≤ 1000,≤ 1000,≤ 1000,≤ 1000,≤ 1000,≤ 1000,≤ 1000,≤ 1000,≤ 1000

# The next lines start with the values.
IC50 (JAK2 V617F) [nM],GI50 [1] [nM],IC50 (FLT3) [nM],GI50 [2] [nM],IC50 (JAK2) [nM],GI50 [3] [nM],GI50 [4] [nM],GI50 [5] [nM],IC50 (CDK2/CyclinA) [nM],Structure (SMILES)
≤ 1000,≤ 1000,≤ 1000,≤ 1000,≤ 1000,≤ 1000,≤ 1000,≤ 1000,–,CN1C/C=C/CCOc2cccc(c2)-c2ccnc(n2)Nc2cccc(c2)C1 [Compound 1]
≤ 1000,≤ 1000,≤ 1000,≤ 1000,≤ 1000,≤ 1000,≤ 1000,≤ 1000,≤ 1000,CCN(CC)CCOc1ccc2cc1CN(C)C/C=C/CCOc1cccc(c1)-c1ccnc(n1)N2 [Compound 32]
≤ 1000,≤ 1000,≤ 1000,≤ 1000,≤ 1000,≤ 1000,≤ 1000,≤ 1000,≤ 1000,CN1C/C=C/CCOc2cccc(c2)-c2ccnc(n2)Nc2ccc(OCCN3CCCC3)c(c2)C1 [Compound 40]
